The record followed here is patent US11890279B2, “Quinolines that modulate SERCA and their use for treating disease” (Neurodon Corporation, priority 2020, dated 2024).

Broadly, the Cmax is the maximum level reached in the sampled fluid or tissue.

Each structure is given as a SMILES string.

The target of one series is human adenosine A2A (Homo sapiens (Human), UniProt P29274). In words: Selectivity panel of 164 targets. The conditions noted are these: 10 μM in duplicate; one of only 4 hits among 164 targets. The source says: (§1) The methods used here for each target were adapted from the scientific literature to maximize reliability and reproducibility.
Sequence of human adenosine A2A (P29274 whole entry): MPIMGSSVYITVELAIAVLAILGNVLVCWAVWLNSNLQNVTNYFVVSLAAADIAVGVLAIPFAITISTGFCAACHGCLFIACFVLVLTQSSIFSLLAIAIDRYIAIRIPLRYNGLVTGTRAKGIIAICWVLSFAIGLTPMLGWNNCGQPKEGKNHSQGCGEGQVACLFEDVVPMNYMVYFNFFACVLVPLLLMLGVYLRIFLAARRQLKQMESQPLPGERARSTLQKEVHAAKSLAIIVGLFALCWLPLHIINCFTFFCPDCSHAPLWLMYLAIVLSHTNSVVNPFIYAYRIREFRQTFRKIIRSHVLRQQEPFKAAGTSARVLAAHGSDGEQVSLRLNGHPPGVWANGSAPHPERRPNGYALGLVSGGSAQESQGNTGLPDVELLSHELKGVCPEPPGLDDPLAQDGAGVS
Series [1] concerns the target human nerepinephrine (NET) transporter (Homo sapiens (Human), UniProt P23975). The series can be described thus: Selectivity panel of 164 targets. The following applies: 10 μM in duplicate; one of only 4 hits among 164 targets.
Text: as §1

For series [2], the system named is rabbit monoamine transporter. In words: Selectivity panel of 164 targets. The conditions noted are these: 10 μM in duplicate; one of only 4 hits among 164 targets.
Text: as §1

In series [3] the target is human serotonin (5-hydroxytryptamine) 5-HT2B (Homo sapiens (Human), UniProt P41595). In words: Selectivity panel of 164 targets. The following applies: 10 μM in duplicate; one of only 4 hits among 164 targets. The source says:
The methods used here for each target were adapted from the scientific literature to maximize reliability and reproducibility. Reference standards were run as an integral part of each essay to ensure the validity of the results obtained.

In the next series the test system is APP-PS1 mice. The series can be described thus: Aβ deposition, thioflavin S staining. The class given is in vivo, mouse. The conditions noted are these: 10 mg/kg ip, 4 weeks, vs saline. On the procedure:
Mice were transcardially perfused with ice-cold PBS (3 mL) followed by 4% paraformaldehyde (5 mL). Brains were extracted and fixed overnight in 30% sucrose-cryoprotectant solution. Coronal hippocampal sections […] thick were cut on a cryostat and collected in TBS (0.1 M Tris, 0.9% saline, pH 7.4). Thioflavin S Staining: Free-floating hippocampal sections were washed with TBS (4×3 min). The sections were soaked in 0.5% thioflavin S (in 50/50 ethyl alcohol/distilled water, Sigma-Aldrich) for 10 min, followed by 2×3 min washes with 50% ethyl alcohol. Sections were washed again with TBS (2×3 min), mounted with minimal drying, and coverslipped with anti-fade mounting medium PVA-DABCO for microscopy. Confocal images of immunolabeled tissue were obtained using 4× and 10× objective lenses on the Olympus Fluoview confocal microscope. Density of amyloid plaques was quantified by averaging the percent area staining positive (thresholded above background staining, as determined by software parameters and experimenter confirmation) within the hippocampus and cortex from 3-5 sections from each experimental animal using MetaMorph Software (Molecular Devices). There were no significant differences in the intensity of background threshold values across animal strains or treatment conditions (p>0.05). The experimenter was blind to animal strain and treatment condition. […] Mice were ˜6 months of age.

The nature of series [4]: Pharmacokinetics in Sprague Dawley rats. The class given is in vivo, rat. The following applies: Sprague Dawley rats. On the procedure:
Blood was drawn at 5 min, 15 min, 30 min, 1 hr, 2 hrs, 4 hrs, 6 hrs, and 8 hrs into EDTA containing tubes and plasma was harvested by centrifugation. Plasma (25 μL) was treated with acetonitrile (125 μL) containing an internal standard. The sample was then centrifuged for 5 min at 4,000 rpm in a tabletop centrifuge and the filtrate was collected. The filtrate was injected onto a Thermo Betasil C18 HPLC column 5 (50×2.1 mm). Mobile Phase A was water with 0.1% formic acid. Mobile Phase B was acetonitrile with 0.1% formic acid. […] An API Sciex 4000 equipped with a turbo ion spray source was used for all analytical measurements. A positive ion MRM method was developed. Peak areas of the product ion were measured against the peak areas of the internal standard. Data was fit using WinNonLin (Pharsight Corporation, Mountain View, CA).

Series [5] can be described thus: Brain barrier penetration in mice. The following applies: mouse, brain/plasma, 10 mg/kg IP, 1 hr after dosing, read-out: brain/plasma ratio. The class given is in vivo. An excerpt:
The brains of the mice were harvested 1 hr after dosing. The brain/plasma ratio was 2.6.

A further series concerns CSM14.1 cells. The series can be described thus: ER stress cell survival assay (thapsigargin).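 Further: survival read as CellTiter-Glo luminescence after overnight incubation.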 It is filed as cell-based. The following applies: compound 2 μM; about 15 μM thapsigargin; CSM14.1 cells.

Sequence of human serotonin (5-hydroxytryptamine) 5-HT2B (P41595 whole entry): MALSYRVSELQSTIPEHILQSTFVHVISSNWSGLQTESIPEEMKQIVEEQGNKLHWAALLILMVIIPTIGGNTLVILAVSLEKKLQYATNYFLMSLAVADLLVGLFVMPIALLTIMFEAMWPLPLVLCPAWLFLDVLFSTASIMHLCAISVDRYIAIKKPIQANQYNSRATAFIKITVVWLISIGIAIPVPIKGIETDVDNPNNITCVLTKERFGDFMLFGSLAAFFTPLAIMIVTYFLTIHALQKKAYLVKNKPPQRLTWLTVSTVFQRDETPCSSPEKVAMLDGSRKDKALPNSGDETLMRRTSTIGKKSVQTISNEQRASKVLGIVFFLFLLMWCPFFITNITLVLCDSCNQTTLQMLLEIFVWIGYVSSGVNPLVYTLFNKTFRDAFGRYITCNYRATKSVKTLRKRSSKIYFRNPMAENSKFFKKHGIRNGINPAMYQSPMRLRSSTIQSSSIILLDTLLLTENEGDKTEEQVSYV

As for `Cc1ccc2cccc(NC(=O)c3ccc(OC(C)C)cc3)c2n1` [Compound A12, 4-Isopropoxy-N-(2-methylquinolin-8-yl)benzamide], the “response against human adenosine A2A” value at human adenosine A2A is given as “significant responses”. Further, in series [1], the “response against human NET transporter” value is given as “significant responses”. Also, the “response against rabbit monoamine transporter” value in series [2] was “significant responses”. Besides, the “response against human 5-HT2B” value in series [3] is reported as “significant responses”. For the same compound, the “amyloid plaques stained with Thioflavin S” value with APP-PS1 mice is “reduced”. Besides, the CLobs in series [4] (listed under oral pharmacokinetic properties) came out at 251 mL/min/kg. In series [4] (rat, plasma, oral, 2 mg/kg P.O.), this compound returned a Cmax of 260 nM. Besides, the AUC(0-t) in series [4] (rat, plasma, oral, 2 mg/kg P.O., read-out: AUClast) was found to be 0.41 µM·h. The Kp at 1 h in series [5] came out at 2.6.

As to `Cc1ccc2cccc(NC(=O)c3ccc(N(C)C)cc3)c2n1` [Compound C18, 4-N,N-Dimethylamino-N-(2-methylquinolin-8-yl)benzamide], the “Cell Survival” value in the series on CSM14.1 cells is “B (B represents a value between 10% and 50%)”.
